{"source": "paper PMC12005787", "about": "“Synthetic Lethality of SHP2 and XIAP Suppresses Proliferation and Metastasis in KRAS‐mutant Nonsmall Cell Lung Cancer” (Advanced Science, 2025)", "key": {"[1]": {"tested_on": "SHP2 and ERK phosphorylation in KRAS, HRAS and NRAS‐mutant cells", "assay": "SHP2 and ERK phosphorylation in RAS-mutant cells (western blotting)", "type": "cell-based", "settings": "KRAS G12C, G12S, G13D", "description": "(§1) Transwell, and the subsequent experiments were performed as described in Cell migration […]\n(§2) After given treatment, cells were lysed by ice bath with radio-immunoprecipitation assay (RIPA) buffer containing 1% phenylmethylsulphonyl fluoride (PMSF), and the supernatant was collected by centrifugation, and the protein concentration was subsequently determined using a BCA Protein Assay Kit. Depending on the molecular weight of the proteins, different concentrations of sodium dodecyl-sulfate polyacrylamide gel electrophoresis (SDS-PAGE) separator gels were prepared for protein electrophoresis. Equal amounts of proteins were sampled and subjected to SDS-PAGE gel electrophoresis; at the end of electrophoresis, the proteins were transferred to nitrocellulose (NC) membranes. The NC membrane was blocked with 5% skim milk and covered with a specific primary antibody overnight at 4 °C, in which the primary antibody was diluted at a ratio of 1:500–1:5000. The NC membrane was […]"}, "[2]": {"tested_on": "NCI‐H2122 and A549 cells", "assay": "Intracellular ATP assay", "type": "cell-based, human", "settings": "monolayer 24 h and 3D culture 48 h", "description": "(§3) supplies are listed in Supplementary Table S5. […]\nFor the adherent cell viability assay, cells in the logarithmic growth phase were seeded in 96-well culture plates at a density of 5×103 well-1 and incubated overnight. Diluted compounds or DMSO were added, or specific treatments were incubated at 37 °C and 5% CO2 for 24 h or 48 h. Cell viability was determined using CCK-8 or CellLightTM Cell Viability Assay Kit, according to the manufacturer's protocol. The luminescence signals of the treated samples were normalized to those of the DMSO group.\nFor spherical cell viability assays, cells in the logarithmic growth phase were inoculated ata density of 4×10^3 well-1 into 96-well spherical cell microplates and incubated at 37 °C, 5% CO2 for 24 h or 48 h. Cell viability was measured using the CellTiter-Glo® Luminescent Cell Viability 3D Cell Viability Assay Kit, according to the manufacturer’s protocol. The remaining steps were the same as those described above. […]"}, "[3]": {"tested_on": "MIG‐6 and SPRY2 in NCI‐H2122 cells", "assay": "MIG-6 and SPRY2 protein expression (western blotting)", "type": "cell-based, human", "settings": "24 h", "description": "as §1, §2"}, "[4]": {"tested_on": "NCI-H2122 cells", "assay": "Cell viability assay (CCK-8)", "type": "cell-based", "settings": "Homo sapiens", "description": "as §3\n(§4) KRAS-mutant and wild-type cells are listed in Supplementary Table S7.\n(§5) For the adherent cell viability assay, cells in the logarithmic growth phase were seeded in 96-well culture plates at a density of 5×103 well-1 and incubated overnight. Diluted compounds or DMSO were added, or specific treatments were incubated at 37 °C and 5% CO2 for 24 h or 48 h. Cell viability was determined using CCK-8 or CellLightTM Cell Viability Assay Kit, according to the manufacturer's protocol. The luminescence signals of the treated samples were normalized to those of the DMSO group. […]"}, "[5]": {"tested_on": "NCI-H1155 cells", "assay": "Cell viability assay (CCK-8)", "type": "cell-based", "settings": "Homo sapiens", "description": "as §3, §4, §5"}, "[6]": {"tested_on": "ACHN cells", "assay": "Cell viability assay (CCK-8)", "type": "cell-based", "settings": "Homo sapiens", "description": "as §3, §4, §5"}, "[7]": {"tested_on": "MDA-MB-231 cells", "assay": "Cell viability assay (CCK-8)", "type": "cell-based", "settings": "Homo sapiens", "description": "as §3, §4, §5"}, "[8]": {"tested_on": "NCI-H1975 cells", "assay": "Cell viability assay (CCK-8)", "type": "cell-based", "settings": "Homo sapiens, NCI-H1975, 24 h, NCI-H1975, RAS-wild type, EGFR L858R/T790M", "description": "as §3, §4, §5"}, "[9]": {"tested_on": "SW1417 cells", "assay": "Cell viability assay (CCK-8)", "type": "cell-based", "settings": "Homo sapiens", "description": "as §3, §4, §5"}, "[10]": {"tested_on": "HeLa cells", "assay": "Cell viability assay (CCK-8)", "type": "cell-based", "settings": "Homo sapiens", "description": "as §3, §4, §5"}, "[11]": {"tested_on": "HCT15 cells", "assay": "Cell viability assay (CCK-8)", "type": "cell-based", "settings": "Homo sapiens, HCT-15", "description": "as §3, §4, §5"}, "[12]": {"tested_on": "Lewis/Luc1 cells", "assay": "Cell viability assay (CCK-8)", "type": "cell-based", "description": "as §3, §4, §5"}, "[13]": {"tested_on": "NCI-H1299 cells", "assay": "Cell viability assay (CCK-8)", "type": "cell-based", "settings": "Homo sapiens", "description": "as §3, §4, §5"}, "[14]": {"tested_on": "A549 cells", "assay": "Cell viability assay (CCK-8)", "type": "cell-based", "settings": "Homo sapiens", "description": "as §3, §4, §5"}, "[15]": {"tested_on": "HCC44 cells", "assay": "Cell viability assay (CCK-8)", "type": "cell-based", "settings": "Homo sapiens", "description": "as §3, §4, §5"}}, "note": "Like-named read-outs stand apart in the source and are kept apart here.", "data": [{"smiles": "CCCCCCCCCCCC1=C(O)C(=O)C=C(O)C1=O", "note": "[Embelin]", "values": [{"measurement": "effect on SHP2 phosphorylation", "setting": "[1]", "result": "inhibited SHP2 phosphorylation"}, {"measurement": "effect on downstream ERK phosphorylation", "setting": "[1]", "result": "significantly reduced"}, {"measurement": "effect on intracellular ATP", "setting": "[2]", "result": "significantly inhibited ATP release"}, {"measurement": "expression of MIG‐6 and SPRY2", "setting": "[3]", "result": "significantly promoted the expression"}, {"measurement": "IC50", "setting": "[4]; NCI-H2122, 48 h, read-out: IC50 at 48 h", "result": "4.03 ± 0.1", "unit": "µM"}, {"measurement": "IC50", "setting": "[4]; NCI-H2122, KRAS G12C, 24 h, read-out: IC50 at 24 h", "result": "4.9 ± 0.1", "unit": "µM"}, {"measurement": "IC50", "setting": "[5]; NCI-H1155, 48 h, read-out: IC50 at 48 h", "result": "7.07 ± 0.45", "unit": "µM"}, {"measurement": "IC50", "setting": "[5]; NCI-H1155, KRAS Q61H, 24 h, read-out: IC50 at 24 h", "result": "16.1 ± 0.36", "unit": "µM"}, {"measurement": "IC50", "setting": "[6]; 48 h, read-out: IC50 at 48 h", "result": "10.3 ± 0.7", "unit": "µM"}, {"measurement": "IC50", "setting": "[6]; HRAS, 24 h, read-out: IC50 at 24 h", "result": "27.4 ± 0.3", "unit": "µM"}, {"measurement": "IC50", "setting": "[7]; MDA-MB-231, 48 h, read-out: IC50 at 48 h", "result": "11.5 ± 0.7", "unit": "µM"}, {"measurement": "IC50", "setting": "[7]; MDA-MB-231, KRAS G13D, 24 h, read-out: IC50 at 24 h", "result": "13.6 ± 0.2", "unit": "µM"}, {"measurement": "IC50", "setting": "[8]", "result": "7.4 ± 0.83", "unit": "µM"}, {"measurement": "IC50", "setting": "[9]; SW1417, 48 h, read-out: IC50 at 48 h", "result": "14.9 ± 0.34", "unit": "µM"}, {"measurement": "IC50", "setting": "[9]; SW1417, RAS-wild type, 24 h, read-out: IC50 at 24 h", "result": "65.39 ± 0.36", "unit": "µM"}, {"measurement": "IC50", "setting": "[10]; 48 h, read-out: IC50 at 48 h", "result": "13.4 ± 0.6", "unit": "µM"}, {"measurement": "IC50", "setting": "[10]; RAS-wild type, 24 h, read-out: IC50 at 24 h", "result": "16.5 ± 0.2", "unit": "µM"}, {"measurement": "IC50", "setting": "[11]; HCT15, 48 h, read-out: IC50 at 48 h", "result": "9.95 ± 0.38", "unit": "µM"}, {"measurement": "IC50", "setting": "[11]; HCT15, KRAS G13D, 24 h, read-out: IC50 at 24 h", "result": "12.8 ± 0.43", "unit": "µM"}, {"measurement": "IC50", "setting": "[12]; Lewis/Luc1, 48 h, read-out: IC50 at 48 h", "result": "18.2 ± 0.9", "unit": "µM"}, {"measurement": "IC50", "setting": "[12]; Lewis/Luc1, RAS-wild type, 24 h, read-out: IC50 at 24 h", "result": "20.6 ± 0.6", "unit": "µM"}, {"measurement": "IC50", "setting": "[13]; NCI-H1299, 48 h, read-out: IC50 at 48 h", "result": "13.1 ± 0.6", "unit": "µM"}, {"measurement": "IC50", "setting": "[13]; NCI-H1299, NRAS, 24 h, read-out: IC50 at 24 h", "result": "19.6 ± 1", "unit": "µM"}, {"measurement": "IC50", "setting": "[14]; A549, 48 h, read-out: IC50 at 48 h", "result": "6.5 ± 0.9", "unit": "µM"}, {"measurement": "IC50", "setting": "[14]; A549, KRAS G12S, 24 h, read-out: IC50 at 24 h", "result": 7.9, "unit": "µM"}, {"measurement": "IC50", "setting": "[15]; HCC44, 48 h, read-out: IC50 at 48 h", "result": "6.52 ± 0.4", "unit": "µM"}, {"measurement": "IC50", "setting": "[15]; HCC44, KRAS G12C, 24 h, read-out: IC50 at 24 h", "result": "27.3 ± 0.44", "unit": "µM"}]}]}
